Biological target: T1, PRMT5 (Homo sapiens, UniProt O14744)
T1 construct: we performed a global quantitative proteomic analysis of MCF7 cells using mass spectrometry; endogenous in cells; host or cells: MCF7
Assay: Global proteomics of MCF7 cells, PRMT5 level
Format: cell-based
Details: 25 nM, 4 h, versus DMSO
Protocol: Sample preparation for global proteomics analysis. Sample preparation is similar to the previous report (Ma et al. “Strategy Based on Deglycosylation, Multiprotease, and Hydrophilic Interaction Chromatography for Large-Scale Profiling of Protein Methylation” Anal. Chem. 2017, 89 (23), 12909-12917). Briefly, treated MCF7 cells were harvested by washing with PBS buffer (Gibco, pH 7.4) and lysed in RIPA buffer supplemented with protease inhibitors for 20 min, then protein concentration was determined using a BCA Protein Assay Kit (Thermo Pierce, Rockford, IL) per manufacturer instructions. […] The concentrations of the peptide mixture were measured by peptide assay (Thermo Fisher Scientific). […]
LC-MS/MS data acquisition. Samples were analyzed on an Orbitrap Fusion Lumos Tribrid mass spectrometer (Thermo Fisher Scientific) coupled to a Dionex UltiMate 3000 UPLC system. […]
Data analysis. Protein identification and quantification by MaxQuant (version 1.5.3.8) based database searching, using the integrated Andromeda search engine with FDR <1% at peptide and protein levels. […] For label-free protein quantification (LFQ), the MaxQuant LFQ algorithm was used to quantitate the MS signals, and the proteins' intensities were represented in LFQintesnit (Schaab et al. “Analysis of High Accuracy, Quantitative Proteomics Data in the MaxQB Database” Mol. Cell. Proteomics 2012, 11 (3), M111.014068). […]

T1 sequence (O14744 whole entry): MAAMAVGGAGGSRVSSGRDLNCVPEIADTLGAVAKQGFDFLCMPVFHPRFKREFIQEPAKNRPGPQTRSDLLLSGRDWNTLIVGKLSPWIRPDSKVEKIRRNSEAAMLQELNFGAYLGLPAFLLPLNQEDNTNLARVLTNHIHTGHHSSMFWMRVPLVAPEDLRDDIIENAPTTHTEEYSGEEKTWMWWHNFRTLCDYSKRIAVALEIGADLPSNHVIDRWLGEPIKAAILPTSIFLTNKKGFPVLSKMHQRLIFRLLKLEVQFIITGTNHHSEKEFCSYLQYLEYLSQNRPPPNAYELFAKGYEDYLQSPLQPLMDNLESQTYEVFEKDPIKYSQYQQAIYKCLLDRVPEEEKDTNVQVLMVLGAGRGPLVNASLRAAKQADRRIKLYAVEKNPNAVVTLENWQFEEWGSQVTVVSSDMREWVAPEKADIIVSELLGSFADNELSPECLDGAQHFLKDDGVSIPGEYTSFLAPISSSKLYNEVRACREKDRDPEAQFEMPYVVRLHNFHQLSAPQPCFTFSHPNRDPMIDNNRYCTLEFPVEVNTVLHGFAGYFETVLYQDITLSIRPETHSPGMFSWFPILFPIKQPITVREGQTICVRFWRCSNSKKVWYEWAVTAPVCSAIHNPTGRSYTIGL

Which “PRMT5 protein level in proteomics” value does the source give for `CNCCN1CCC(c2cc(CN(C)C(=O)c3cccc(Oc4ccc(OCC(=O)N5CCC(CN6CCC(CN7CCN(CC(=O)N[C@H](C(=O)N8C[C@H](O)C[C@H]8C(=O)N[C@@H](C)c8ccc(-c9scnc9C)cc8)C(C)(C)C)CC7)CC6)CC5)cc4)c3)ccn2)CC1` [Compound 3b, (2S,4R)-1-((S)-3,3-dimethyl-2-(2-(4-((1-((1-(2-(4-(3-(methyl((2-(1-(2-(methylamino)ethyl)piperidin-4-yl)pyridin-4-yl)methyl)carbamoyl)phenoxy)phenoxy)acetyl)piperidin-4-yl)methyl)piperidin-4-yl)methyl)piperazin-1-yl)acetamido)butanoyl)-4-hydroxy-N—((S)-1-(4-(4-methylthiazol-5-yl)phenyl)ethyl)pyrrolidine-2-carboxamide] here?
Its value is “not significantly changed”.

From patent US20250222120A1, “SYNTHESIS OF NOVEL SMALL MOLECULE CARM1 DEGRADERS, COMPOUNDS FORMED THEREBY, AND PHARMACEUTICAL COMPOSITIONS CONTAINING THEM” (Wisconsin Alumni Research Foundation, priority 2024, published 2025)
